Laboratory results reported in ChEMBL document CHEMBL1275465, “Plasmid-mediated QnrS2 determinant from a clinical Aeromonas veronii isolate” (2008).
≈ marks a conversion by molar mass, not a printed value.

Tests used:
Type in all cases: functional
Escherichia coli [1] = assay: Antimicrobial activity against Escherichia coli J53 by Etest
Aeromonas veronii [2] = assay: Antimicrobial activity against QnrS2-negative Aeromonas veronii CECT 4260 harboring GyrA Ser83 and ParC Ser80 mutant gene by Etest
Aeromonas veronii [3] = assay: Antimicrobial activity against QnrS2-negative Aeromonas veronii CECT 4258 harboring GyrA Ser83 and ParC Ser80 mutant gene by Etest
Aeromonas veronii [4] = assay: Antimicrobial activity against QnrS2-positive Aeromonas veronii A272 harboring GyrA Ile83 and ParC Ile80 mutant gene by Etest
Escherichia coli [5] = assay: Antimicrobial activity against Escherichia coli J53 harboring QnrS2 and GyrA Ile83 and ParC Ile80 mutant gene by Etest

| SMILES | MIC (Escherichia coli [1]) | MIC (Aeromonas veronii [2]) | MIC (Aeromonas veronii [3]) | MIC (Aeromonas veronii [4]) | MIC (Escherichia coli [5]) |
| --- | --- | --- | --- | --- | --- |
| O=C(O)c1cn(C2CC2)c2cc(N3CCNCC3)c(F)cc2c1=O [CIPROFLOXACIN] | 0.023 µg/mL (≈ 0.0694 µM) | < 0.02 µg/mL | < 0.02 µg/mL | 8 µg/mL (≈ 24.1 µM) |  |
| CCn1cc(C(=O)O)c(=O)c2ccc(C)nc21 [NALIDIXIC ACID] | 4 µg/mL (≈ 17.2 µM) | < 0.25 µg/mL | < 0.25 µg/mL | > 256 µg/mL | > 256 µg/mL |
| CCn1cc(C(=O)O)c(=O)c2cc(F)c(N3CCNCC3)cc21 [NORFLOXACIN] | 0.19 µg/mL (≈ 0.595 µM) | < 0.02 µg/mL | < 0.02 µg/mL | 12 µg/mL (≈ 37.6 µM) | 2 µg/mL (≈ 6.26 µM) |
